Data reported in paper PMC9329268 (Angewandte Chemie (International ed. in English), 2022).
In brackets after ≈: the same amount, converted by molar mass.

Experiments:
[1] = molecular target: T1, human dolichyl-phosphate N-acetylglucosaminephosphotransferase 1 (DPAGT1) (Homo sapiens, UniProt Q9H3H5); assay type: biochemical; details: read-out: IC50 DPAGT1; Human enzyme; n = 3
T1 sequence (Q9H3H5 1-408): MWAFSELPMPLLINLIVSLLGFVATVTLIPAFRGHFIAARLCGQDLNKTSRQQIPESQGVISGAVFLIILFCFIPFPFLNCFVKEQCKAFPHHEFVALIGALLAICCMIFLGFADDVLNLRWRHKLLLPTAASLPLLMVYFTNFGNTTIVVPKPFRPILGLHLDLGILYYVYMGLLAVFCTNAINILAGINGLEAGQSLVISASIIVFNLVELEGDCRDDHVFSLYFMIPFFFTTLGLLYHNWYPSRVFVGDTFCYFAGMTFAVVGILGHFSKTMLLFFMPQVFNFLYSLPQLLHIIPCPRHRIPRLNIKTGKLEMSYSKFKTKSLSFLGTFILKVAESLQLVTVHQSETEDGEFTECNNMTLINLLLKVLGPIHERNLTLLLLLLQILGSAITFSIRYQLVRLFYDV

AglH = molecular target: T2, AglH (Methanocaldococcus jannaschii, UniProt Q58513); assay type: biochemical; details: read-out: IC50 AglH; Methanococcus jannaschii enzyme; n = 3
T2 sequence (Q58513 1-301): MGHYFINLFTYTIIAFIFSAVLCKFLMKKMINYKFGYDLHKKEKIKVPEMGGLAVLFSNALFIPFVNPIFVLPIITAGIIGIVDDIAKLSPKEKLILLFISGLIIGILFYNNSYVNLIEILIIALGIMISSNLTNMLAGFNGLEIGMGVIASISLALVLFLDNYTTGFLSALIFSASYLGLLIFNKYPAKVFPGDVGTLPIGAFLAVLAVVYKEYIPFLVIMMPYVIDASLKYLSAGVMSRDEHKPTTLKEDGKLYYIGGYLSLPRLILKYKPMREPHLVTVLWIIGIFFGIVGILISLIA

MraY = details: read-out: IC50 MraY
Water-solubility = assay type: physicochemical
[2] = test system: Mycobacterium tuberculosis (H37Rv); test: Antibacterial activity; assay type: cell-based
[3] = test system: Mycobacterium smegmatis (ATCC607); test: Antibacterial activity; assay type: cell-based
[4] = test system: Streptococcus salivarius (ATCC7752); test: Antibacterial activity; assay type: cell-based
[5] = test system: Bacillus cereus (ATCC1479); test: Antibacterial activity; assay type: cell-based
[6] = test system: healthy (normal) and cancer cell lines; details: read-out: IC50 (rapid cytotoxic activity); within 24 h; ref 4a; cited from earlier work

SMILES	IC50 [1]	IC50 (AglH)	IC50 (MraY)	solubility (Water-solubility)	MIC [2]	MIC [3]	MIC [4]	MIC [5]	IC50 [6]
CC(=O)N[C@H]1[C@@H](O[C@@H]2O[C@H](C[C@@H](O)[C@H]3O[C@@H](n4ccc(=O)[nH]c4=O)[C@H](O)[C@@H]3O)[C@H](O)[C@H](O)[C@H]2NC(=O)/C=C/CCCCCCCCCC(C)C)O[C@H](CO)[C@@H](O)[C@@H]1O [TN-V (natural), tunicamycin V, reference compound]	1.5 µM	13.2 µM	2.9 µM						
CC(=O)N[C@H]1[C@@H](O[C@@H]2O[C@H](C[C@@H](O)[C@H]3O[C@@H](n4ccc(=O)[nH]c4=O)[C@H](O)[C@@H]3O)[C@H](O)[C@H](O)[C@H]2NC(=O)/C=C/CCCCCCCCCC(C)C)O[C@H](CO)[C@@H](O)[C@@H]1O [TN-V (1, synthetic), tunicamycin V]	1.5 µM	13 µM	2.5 µM	< 200 µg/mL	6.3 µg/mL (≈ 7.58 µM)	6.3 µg/mL (≈ 7.58 µM)	25.0 µg/mL (≈ 30.1 µM)	0.4 µg/mL (≈ 0.481 µM)	0.5 to 2.5 µM
